Results from patent US8846103B2, “Exogenously triggered controlled release materials and uses thereof” (SmartCells, Inc., priority 2009, dated 2014).

Tests used:
concanavalin A (Con A) = concanavalin A (Con A) (Canavalia ensiformis, UniProt P02866); conditions: higher affinity than glucose; cited from earlier work
non-diabetic SD rats = type: in vivo, Sprague Dawley (SD) rats
Experimental: FIG. 3: (a) Plot of (♦) serum insulin and (◯) blood glucose levels following subcutaneous injection in non-diabetic SD rats at time 0 with TSB-C4-AEBM-2-insulin/native Con A (an α-methyl mannose-responsive material). An i.p. injection of α-methyl mannose was administered at 120 min as indicated by the *.
0.300 ml of the formulation prepared in Example 1 was injected subcutaneously into each of three normal male Sprague Dawley (SD) rats (Charles River Laboratories, Wilmington, Mass.) weighing between 400 and 500 g. Prior to formulation injection, blood glucose values were measured via tail vein bleeding using a Precision Xtra glucometer (Abbott Laboratories, Alameda, Calif.) and approximately 100 ul of serum was obtained via tail vein bleeding to assay for background insulin levels. Food was removed from the rat cages during the duration of the study. Serum and blood glucose values were obtained at 30 min, 60 min, 90 min, and 120 min post-injection. At 120 min after the injection, an intraperitoneal injection of a 25% w/v α-methyl-mannose solution was injected to provide a 2 g/kg dose after which serum and blood glucose values were obtained at 135 min, 150 min, 180 min, 210 min, 240 min, and 300 min.

Row | Compound | affinity for Con A relative to endogenous glucose (concanavalin A (Con A)) | conjugate release at physiologically normal blood glucose levels (background release) (non-diabetic SD rats; rat, in vivo, sc) | response to exogenous α-methyl-mannose (non-diabetic SD rats; summary statement on Examples 1-2)
1 | COC1O[C@H](CO)[C@@H](O)[C@H](O)[C@@H]1O (stereo partly drawn) [α-methyl-mannose] | about 40 fold |  | 
2 | exemplary conjugate with two AEBM affinity ligands: Conjugate with TSB-C4 as the scaffold, AEBM as the affinity ligand, insulin (conjugated at Phe-B1) as the drug |  | very little background release | significant response
